Data reported in patent US7326689B2, “Pseudomycins useful against plant diseases” (Eli Lilly and Company, priority 2000, dated 2008).

Experiments:
Test in all cases: Antifungal growth assay in potato dextrose broth, 24-well
Format in all cases: cell-based
Set-up in all cases: key: NI, no inhibition; p (partial), at least 50% inhibited
Alternaria helianthi = conditions: 2x assays
Experimental: (§1) Fungi to be tested were propagated on potato dextrose agar (PDA) plates at room temperature. Stock solutions of pseudomycins and depsipeptide were suspended in dimethylsulfoxide (DMSO) (Sigma) at 5 mg/ml and stored at −20C. Serial dilutions of compounds were done the day of the experiment. All serial dilutions were made in DMSO. […] These are noted in the raw data section.
(§2) Assays were performed in 24-well cell culture clusters (Costar 3524), with 990 ul potato dextrose broth (PDB, Difco) and 10 ul of the compound to be tested in each well. Initial concentrations tested were 50-1.56 ug/ml (final concentration of pseudomycin). Actual concentrations of pseudomycins tested were 50, 25, 12.5, 6.25, 3.12 and 1.56 ug/ml. Each well was inoculated with the appropriate fungus. Unless noted, the fungal inoculum consisted of an ˜4 mm^2 piece of PDA with fungal mycelium. The exceptions were as follows. Ustilago maydis: this fungus grows much like a yeast on PDA, and cells were scraped from the PDA stock plate, resuspended in PDB and 10 ul inoculum added to each well. Monilinia sp.: this fungal mycelium grows as a very loose sheet on top of PDA and would not adhere to agar blocks. Fungal mycelium was ground with a metal rod in 500 ul PDB and 10 ul inoculum was added to each well. Mycosphaeella fijiensis, Septoria passerinii, Septoria triticii: these fungi all grow very slowly and the results were difficult to score if a small piece of agar with fungal mycelium on it was used as an inoculum. For these fungi, the mycelium was ground with a metal rod in 500 ul PDB and 10 ul inoculum was added to each well.
(§3) Wells were scored for fungal growth at two days and five days. Some slow growing fungi were scored at later days for growth because assessment was not possible at two or five days. Growth was scored by comparison to a control consisting of fungus inoculated into 990 ul potato dextrose broth and 10 ul of DMSO (Dimethylsulfoxide). An additional control consisting of fungal inoculum in PDB only was performed to ensure that the DMSO was not inhibitory to fungal growth.
(§4) For assays that were repeated, new stock solutions were made from a second shipment of pseudomycins. Note that pseudomycin B′ and depsipeptide stock solutions were remade from first shipment materials because these were not included in the second shipment. […] Actual concentrations of pseudomycins tested were 2, 1, 0.5, 0.25, 0.125 and 0.0625 ug/ml. A-PO4 and A-FB=pseudomycin A phosphate salt and free base respectively.
(§5) Table 2: Two day results—concentration indicated is lowest level of compound (ug /ml) that results is no growth. NI, no inhibition; p (partial), at least 50% inhibited; -, not determined. If number of assays was greater than one, number of assays performed on the fungus is noted in parentheses. For several slow-growing fungi, days elapsed before observation (if different than two) are noted.
(§6) Table 3: Five day results—concentration indicated is lowest level of compound (ug /ml) that results in no growth. NI, no inhibition; p (partial), at least 50% inhibited; -, not performed on the fungus is noted in parentheses. For several slow-growing fungi, days elapsed before observation (if different than five) are noted.

Phyllosticta maydis = system: Phyllosticta maydis
Experimental: as §1, §2, §3, §4, §5, §6

Phytophthora cactorum = system: Phytophthora cactorum
Experimental: as §1, §2, §3, §4, §5, §6

Phytophthora ultimum = system: Phytophthora ultimum
Experimental: as §1, §2, §3, §4, §5, §6

Verticillium dahliae = conditions: 2x assays
Experimental: as §1, §2, §3, §4, §5, §6

Tapesia acuformis = conditions: 2x assays
Experimental: as §1, §2, §3, §4, §5, §6

Tapesia yallundae = conditions: 2x assays
Experimental: as §1, §2, §3, §4, §5, §6

Botrytis alli = conditions: 2x assays
Experimental: as §1, §2, §3, §4, §5, §6

Phytophthora cinnemani = system: Phytophthora cinnemani
Experimental: as §1, §2, §3, §4, §5, §6

Stagonospora nodorum = system: Stagonospora nodorum
Experimental: as §1, §2, §3, §4, §5, §6

Aphanomyces sp. = conditions: 2x assays
Experimental: as §1, §2, §3, §4, §5, §6

Fusarium culmorum = system: Fusarium culmorum
Experimental: as §1, §2, §3, §4, §5, §6

Fusarium solani = system: Fusarium solani
Experimental: as §1, §2, §3, §4, §5, §6

[1] = system: Fusarium oxysporum cubense
Experimental: as §1, §2, §3, §4, §5, §6

Drechslera teres = system: Drechslera teres
Experimental: as §1, §2, §3, §4, §5, §6

Sclerotinia sclerotiorum = conditions: 2x assays
Experimental: as §1, §2, §3, §4, §5, §6

Bipolaris sorokiniana = system: Bipolaris sorokiniana
Experimental: as §1, §2, §3, §4, §5, §6

Phytophthora parasitica = system: Phytophthora parasitica
Experimental: as §1, §2, §3, §4, §5, §6

Phoma chrysamthecola = conditions: five day results
Experimental: as §1, §2, §3, §4, §5, §6

Row | Substance | lowest level of compound that results in no growth (Alternaria helianthi; five day results) | lowest level of compound that results in no growth (Alternaria helianthi; two day results) | lowest level of compound that results in no growth (Phyllosticta maydis; five day results) | lowest level of compound that results in no growth (Phyllosticta maydis; two day results) | lowest level of compound that results in no growth (Phytophthora cactorum; five day results) | lowest level of compound that results in no growth (Phytophthora cactorum; two day results) | lowest level of compound that results in no growth (Phytophthora ultimum; five day results) | lowest level of compound that results in no growth (Phytophthora ultimum; two day results) | lowest level of compound that results in no growth (Verticillium dahliae; five day results) | lowest level of compound that results in no growth (Verticillium dahliae; two day results) | lowest level of compound that results in no growth (Tapesia acuformis; five day results) | lowest level of compound that results in no growth (Tapesia acuformis; two day results) | lowest level of compound that results in no growth (Tapesia yallundae; five day results) | lowest level of compound that results in no growth (Tapesia yallundae; two day results) [µg/mL] | lowest level of compound that results in no growth (Botrytis alli; five day results) | lowest level of compound that results in no growth (Botrytis alli; two day results) | lowest level of compound that results in no growth (Phytophthora cinnemani; five day results) | lowest level of compound that results in no growth (Phytophthora cinnemani; two day results) | lowest level of compound that results in no growth (Stagonospora nodorum; five day results) | lowest level of compound that results in no growth (Stagonospora nodorum; two day results) | other results
1 | Pseudomycin C′ | NI | p at 50 | NI | p at 50 | NI | NI | NI | NI | p at 50 | p at 50 | NI | NI | NI | 6.25 | NI | NI | NI | NI | NI | NI | lowest level of compound that results in no growth (Aphanomyces sp.; five day results): p at 50; lowest level of compound that results in no growth (Aphanomyces sp.; two day results): 25 µg/mL; lowest level of compound that results in no growth (Fusarium culmorum; five day results): NI; lowest level of compound that results in no growth (Fusarium culmorum; two day results): NI; lowest level of compound that results in no growth (Fusarium solani; five day results): NI; lowest level of compound that results in no growth (Fusarium solani; two day results): NI; lowest level of compound that results in no growth ([1]; five day results): NI; lowest level of compound that results in no growth ([1]; two day results): NI; lowest level of compound that results in no growth (Drechslera teres; five day results): NI; lowest level of compound that results in no growth (Drechslera teres; two day results): NI; lowest level of compound that results in no growth (Sclerotinia sclerotiorum; five day results): p at 50; lowest level of compound that results in no growth (Sclerotinia sclerotiorum; two day results): 50 µg/mL; lowest level of compound that results in no growth (Bipolaris sorokiniana; five day results): NI; lowest level of compound that results in no growth (Bipolaris sorokiniana; two day results): NI; lowest level of compound that results in no growth (Phytophthora parasitica; five day results): NI; lowest level of compound that results in no growth (Phytophthora parasitica; two day results): NI; lowest level of compound that results in no growth (Phoma chrysamthecola): NI
2 | pseudomycin A-FB | 25 µg/mL | 25 µg/mL | NI | p at 50 | NI | NI | NI | NI | p at 50 | 50 µg/mL | NI | NI | 25 µg/mL | 12.5 | NI | NI | NI | NI | NI | NI | lowest level of compound that results in no growth (Aphanomyces sp.; five day results): NI; lowest level of compound that results in no growth (Aphanomyces sp.; two day results): NI; lowest level of compound that results in no growth (Fusarium culmorum; five day results): NI; lowest level of compound that results in no growth (Fusarium culmorum; two day results): NI; lowest level of compound that results in no growth (Fusarium solani; five day results): NI; lowest level of compound that results in no growth (Fusarium solani; two day results): p at 50; lowest level of compound that results in no growth ([1]; five day results): NI; lowest level of compound that results in no growth ([1]; two day results): NI; lowest level of compound that results in no growth (Drechslera teres; five day results): NI; lowest level of compound that results in no growth (Drechslera teres; two day results): NI; lowest level of compound that results in no growth (Sclerotinia sclerotiorum; five day results): NI; lowest level of compound that results in no growth (Sclerotinia sclerotiorum; two day results): NI; lowest level of compound that results in no growth (Bipolaris sorokiniana; five day results): NI; lowest level of compound that results in no growth (Bipolaris sorokiniana; two day results): NI; lowest level of compound that results in no growth (Phytophthora parasitica; five day results): NI; lowest level of compound that results in no growth (Phytophthora parasitica; two day results): NI; lowest level of compound that results in no growth (Phoma chrysamthecola): p at 50
